These results are taken from PMC7371993, “Targeting of the C-Type Lectin Receptor Langerin Using Bifunctional Mannosylated Antigens” (Frontiers in Cell and Developmental Biology, 2020).

The target in one experiment is T1, Langerin ECD (Homo sapiens, UniProt Q9UJ71).
T1 construct: The ECD of Langerin (residues 68–328) was overexpressed and purified as previously described; made in house
In words: SPR competition (inhibition) assay with trimeric Langerin ECD. Type of experiment: binding. The settings on record: Biacore T200, CM3 chip with BSA-Manα1-3[Manα1-6]Man, Langerin ECD 20 μM, 25 mM Tris-HCl pH 8, 150 mM NaCl, 4 mM CaCl2, 0.05% P20, four parameter fit. On the procedure: The ECD of Langerin (residues 68–328) was overexpressed and purified as previously described ([Thépaut et al., 2009]). The SPR competition experiments were performed on a Biacore T200 using a CM3 series S sensor chip. Control flow cell 1 was functionalized with bovine serum albumin (BSA), whereas flow cell 2 and 3 were treated with 60 μg/mL BSA-Man α1-3[Manα1-6]Man (Dextra) in 10 mM NaOAc pH4 (final densities 2.062 and 2.183 RU, respectively). All flow cells were blocked with ethanolamine. […] Langerin ECD (20 μM) was injected at 5 μL/min, with or without inhibitor at increasing concentrations. The data were analyzed in Biacore BIAevaluation software using four parameter equation, and the IC50 was determined.
For orientation: In SPR one partner is held on a chip, and binding of the other changes the refractive index at the surface.

Another experiment deals with T2, Langerin S-ECD (Homo sapiens, UniProt Q9UJ71).
T2 construct: The ECD of Langerin (residues 68–328) was overexpressed and purified as previously described; made in house
In words: SPR direct interaction assay on oriented Langerin S-ECD surface. Type of experiment: binding. The settings on record: Langerin S-ECD captured via StreptagII on CM3 chip, flow 30 μL/min, same running buffer pH 8, 1:1 fit, apparent Kd, read-out: Kdapp. On the procedure: To determine the apparent Kd value, direct interaction experiments were executed on a T200 Biacore with a CM3 series S sensor chip. The Langerin ECD in this assay was functionalized with a […] on the N-terminus (Langerin S-ECD), for oriented capture on the sensor chip surface. The flow cells were functionalized with streptactin protein after EDC/NHS activation. Control flow cell 1 was functionalized with BSA, whereas another flow cell was functionalized with 100 μg/mL Langerin S-ECD via tag-specific capture and simultaneous amine coupling as previously described ([Porkolab et al., 2020]). An approximate density of about 2.609 RU was achieved on the chip surface. The compounds were injected in increasing concentrations with a flow rate of 30 μL/min in the previously mentioned running buffer. The data were analyzed in Biacore BIAevaluation software for direct interaction 1:1 calculation to determine the apparent Kd value.

T1 sequence (Q9UJ71 68-328): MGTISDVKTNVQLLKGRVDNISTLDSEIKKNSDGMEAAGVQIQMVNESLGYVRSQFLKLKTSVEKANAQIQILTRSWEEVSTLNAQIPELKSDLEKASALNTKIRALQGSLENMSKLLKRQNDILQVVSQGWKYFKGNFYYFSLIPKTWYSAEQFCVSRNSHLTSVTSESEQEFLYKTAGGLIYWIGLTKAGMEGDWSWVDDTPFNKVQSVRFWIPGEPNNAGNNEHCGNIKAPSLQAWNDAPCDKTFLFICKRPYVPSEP
T2 sequence (Q9UJ71 68-328): as above

Take `CC(=O)N[C@@H](CCCCn1cc(CO[C@H]2O[C@H](CO)[C@@H](O)[C@H](O)[C@@H]2O)nn1)C(=O)NCC(=O)N[C@@H](CCCCn1cc(CO[C@H]2O[C@H](CO)[C@@H](O)[C@H](O)[C@@H]2O)nn1)C(=O)NCC(=O)N[C@@H](CCCCN)C(N)=O` [Ligand A2]: on Langerin ECD, the IC50 (commonly the concentration that inhibits the measured activity by half) was 2420 ± 30 µM.

`CC(=O)N[C@@H](CCCCn1cc(CO[C@H]2O[C@H](CO)[C@@H](O)[C@H](O)[C@@H]2O[C@H]2O[C@H](CO)[C@@H](O)[C@H](O)[C@@H]2O)nn1)C(=O)NCC(=O)N[C@@H](CCCCN)C(N)=O` [Ligand B1]: the IC50 at Langerin ECD stood at 4140 µM.

Take `CC(=O)N[C@@H](CCCCn1cc(CO[C@H]2O[C@H](CO)[C@@H](O)[C@H](O)[C@@H]2O[C@H]2O[C@H](CO)[C@@H](O)[C@H](O)[C@@H]2O)nn1)C(=O)NCC(=O)N[C@@H](CCCCn1cc(CO[C@H]2O[C@H](CO)[C@@H](O)[C@H](O)[C@@H]2O[C@H]2O[C@H](CO)[C@@H](O)[C@H](O)[C@@H]2O)nn1)C(=O)NCC(=O)N[C@@H](CCCCN)C(N)=O` [Ligand B2]: on Langerin ECD, the IC50 was found to be 181 ± 4 µM. This IC50 is about 23-fold lower than that of the compound before. As to `CC(=O)N[C@@H](CCCCn1cc(CO[C@H]2O[C@H](CO)[C@@H](O)[C@H](O[C@H]3O[C@H](CO)[C@@H](O)[C@H](O)[C@@H]3O)[C@@H]2O)nn1)C(=O)NCC(=O)N[C@@H](CCCCn1cc(CO[C@H]2O[C@H](CO)[C@@H](O)[C@H](O[C@H]3O[C@H](CO)[C@@H](O)[C@H](O)[C@@H]3O)[C@@H]2O)nn1)C(=O)NCC(=O)N[C@@H](CCCCN)C(N)=O` [Ligand C2], at Langerin ECD, the IC50 is 1420 µM. For the compound `CC(=O)N[C@@H](CCCCn1cc(CO[C@H]2O[C@H](CO[C@H]3O[C@H](CO)[C@@H](O)[C@H](O)[C@@H]3O)[C@@H](O)[C@H](O)[C@@H]2O)nn1)C(=O)NCC(=O)N[C@@H](CCCCn1cc(CO[C@H]2O[C@H](CO[C@H]3O[C@H](CO)[C@@H](O)[C@H](O)[C@@H]3O)[C@@H](O)[C@H](O)[C@@H]2O)nn1)C(=O)NCC(=O)N[C@@H](CCCCN)C(N)=O` [Ligand D2], the Kd at Langerin S-ECD stood at 16 µM. The same measure, in the same setting: for `CC(=O)N[C@@H](CCCCn1cc(CO[C@H]2O[C@H](CO[C@H]3O[C@H](CO)[C@@H](O)[C@H](O)[C@@H]3O)[C@@H](O)[C@H](O[C@H]3O[C@H](CO)[C@@H](O)[C@H](O)[C@@H]3O)[C@@H]2O)nn1)C(=O)NCC(=O)N[C@@H](CCCCn1cc(CO[C@H]2O[C@H](CO[C@H]3O[C@H](CO)[C@@H](O)[C@H](O)[C@@H]3O)[C@@H](O)[C@H](O[C@H]3O[C@H](CO)[C@@H](O)[C@H](O)[C@@H]3O)[C@@H]2O)nn1)C(=O)NCC(=O)N[C@@H](CCCCN)C(N)=O` [Ligand E2] the value was 278 µM.
